Experimental data from patent US9463194B2, “Methods of treating patients co-infected with HIV and tuberculosis” (priority 2014, dated 2016).
Values after ≈ are worked out from the molar mass of the structure shown. “Also recorded” adds a separate entry of the source.

Assays:
[1] = in vivo; cited from earlier work
wild type HIV virus = assay: In vitro assay of concentration-dependent inhibition of wild type HIV virus (IC95); type: cell-based
Description: “IC95” or “EC95” refers to the inhibitory concentration required to achieve 95% of the maximum desired effect, which in the case of EVG is the inhibition of the HIV virus. This term is obtained using an in vitro assay evaluating the concentration-dependent inhibition of wild type HIV virus.

[2] = ritonavir-boosted EVG + RFB QOD; cited from earlier work
[3] = RFB metabolite; cited from earlier work
[4] = Steady-state pharmacokinetic interaction study of EVG/COBI Composition plus evening COBI plus RFB QOD in healthy volunteers; type: in vivo, human
Description: “Ctau” or “Ctrough” is a pharmacokinetic (PK) parameter that refers to the concentration of the drug at the end of the dosing interval. This parameter is obtained by direct measurement of the drug concentrations in a plasma sample collected from the study subject at the end of the dosing interval (i.e., 24 hours post-dose) using a validated high-performance liquid chromatography/tandem mass spectrometry (HPLC/MS/MS) bioanalytical assay.
This study evaluated the steady-state pharmacokinetics and safety of the coadministered Composition and an additional dose of COBI in combination with RFB QOD.
Lack of PK alteration bounds for 90% confidence intervals (CI) about the geometric mean ratio (GMR) (coadministration: alone) were 70-143% for EVG and RFB.

[5] = coadministration (Composition QD + COBI 150 mg evening + RFB 150 mg QOD) : alone, healthy volunteers, n = 14, steady state

In the case of `CC(C)c1nc(CN(C)C(=O)N[C@@H](CCN2CCOCC2)C(=O)N[C@H](CC[C@H](Cc2ccccc2)NC(=O)OCc2cncs2)Cc2ccccc2)cs1` [COBI], the “exposures upon coadministration with RFB (previous research)” value [1] is listed as “substantially lower” and the “levels lower by 24 hrs post dose when co-administered with RFB” value [1] is listed as 70%.

For `COc1cc2c(cc1Cc1cccc(Cl)c1F)c(=O)c(C(=O)O)cn2[C@H](CO)C(C)C` [EVG, elvitegravir], the IC95 (wild type HIV virus) is given as 0.045 µg/mL (≈ 0.1 µM), the “exposures upon coadministration with RFB (previous research)” value [1] is given as “substantially lower” and the “levels lower by 24 hrs post dose when co-administered with RFB” value [1] is given as 70%.

For `CC(C)c1nc(CN(C)C(=O)N[C@H](C(=O)N[C@@H](Cc2ccccc2)C[C@H](O)[C@H](Cc2ccccc2)NC(=O)OCc2cncs2)C(C)C)cs1` [ritonavir], the “exposure when co-administered with RFB QOD (ritonavir boosting, in words)” value [2] is given as “maintained through the end of the dosing interval”.

For 25-O-desacetylrifabutin, the “contribution to total antimycobacterial activity” value [3] is listed as roughly 10% and the “exposure higher versus RFB alone” value ([4]; RFB metabolite, EVG QD + COBI BID + RFB QOD versus RFB alone) is listed as roughly 12 fold.

For `CO[C@H]1/C=C/O[C@@]2(C)Oc3c(C)c(O)c4c(c3C2=O)C2=NC3(CCN(CC(C)C)CC3)NC2=C(NC(=O)/C(C)=C\C=C\[C@H](C)[C@H](O)[C@@H](C)[C@@H](O)[C@@H](C)[C@H](OC(C)=O)[C@@H]1C)C4=O` [RFB, 1′,4-didehydro-1-deoxy-1,4-dihydro-5′-(2-methylpropyl)-1-oxorifamycin XIV], the “exposures versus reference treatment (in words)” value ([4]; Composition QD + COBI 150 mg evening + RFB 150 mg QOD, no-effect boundary 70-143%) was “within the predefined no-effect boundary; also recorded: clinically equivalent exposures”, the “Ctau higher versus reference treatments” value ([4]; EVG QD + COBI BID + RFB QOD versus reference treatment) was 41% and the “AUCtau % GMR (90% CI)” value [4, 5] was 114.44 (100.27, 130.62) %. For the same compound, the “Cmax % GMR (90% CI)” value [4, 5] was 116.26 (101.44, 133.23) % and the “Ctau % GMR (90% CI)” value [4, 5] was 140.76 (123.76, 160.09) %.
